{"source": "patent US20230123334A1", "about": "“AMINO LIPID COMPOUND, PREPARATION METHOD THEREFOR, AND APPLICATION THEREOF” (SHENZHEN SHENXIN BIOTECHNOLOGY CO., LTD., priority 2020, published 2023)", "data": [{"system": "HEK293 cells", "test": "Preliminary screening as DNA vectors, GFP transfection of HEK293 cells", "type": "cell-based", "settings": "amino lipid/DOPE liposome with 75 ng plasmid DNA (psin-EGFP-IRES-Puro); number of GFP-expressing cells divided by total nuclei (Hoechst)", "method_in_brief": "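Lipid + DOPE liposomes (NaOAc, pH 5.6) complexed w/ 75 ng psin-EGFP-IRES-Puro, 30 min RT; added to 3-5×10^4 HEK293/well, 37° C. Hoechst 0.2 μg/mL at 20-24 h, imaged after further 20-24 h. Efficiency = GFP+ cells / total nuclei.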", "units": {"Absolute DNA transfection efficiency in HEK293 cells": "%"}, "values": [{"compound": "CCCCCCCCCCCCCCCCCCSc1nc(NCCCCCCCC)nc(NCCCN(C)C)n1", "note": "[S18N8 D6]", "Absolute DNA transfection efficiency in HEK293 cells": 23.0}, {"compound": "CCCCCCCCCCCCCCCCCCSc1nc(NCCCCCCCC)nc(NCCN(CC)CC)n1", "note": "[S18N8 D7]", "Absolute DNA transfection efficiency in HEK293 cells": 6.7}, {"compound": "CCCCCCCCCCCCCCCCCCSc1nc(NCCCCCCCC)nc(NCCCN2CCOCC2)n1", "note": "[S18N8 D8]", "Absolute DNA transfection efficiency in HEK293 cells": 2.0}, {"compound": "CCCCCCCCCCCCCCCCCCSc1nc(NCCCCCCCC)nc(NCCCN2CCN(C)CC2)n1", "note": "[S18N8 D9]", "Absolute DNA transfection efficiency in HEK293 cells": 6.6}, {"compound": "CCCCCCCCCCCCCCCCCCSc1nc(NCCCCCCCC)nc(NCC2CCN(C)CC2)n1", "note": "[S18N8 D10]", "Absolute DNA transfection efficiency in HEK293 cells": 11.7}, {"compound": "CCCCCCCCCCCCCCCCCCSc1nc(NCCCCCCCCC)nc(NCCN(C)C)n1", "note": "[S18N9 D1]", "Absolute DNA transfection efficiency in HEK293 cells": 5.3}, {"compound": "CCCCCCCCCCCCCCCCCCSc1nc(NCCCCCCCCC)nc(NCCN2CCOCC2)n1", "note": "[S18N9 D2]", "Absolute DNA transfection efficiency in HEK293 cells": 3.4}, {"compound": "CCCCCCCCCCCCCCCCCCSc1nc(NCCCCCCCCC)nc(NCCN2CCCC2)n1", "note": "[S18N9 D3]", "Absolute DNA transfection efficiency in HEK293 cells": 20.4}, {"compound": "CCCCCCCCCCCCCCCCCCSc1nc(NCCCCCCCCC)nc(NCCN2CCCCC2)n1", "note": "[S18N9 D4]", "Absolute DNA transfection efficiency in HEK293 cells": 4.0}, {"compound": "CCCCCCCCCCCCCCCCCCSc1nc(NCCCCCCCCC)nc(NCCN2CCN(C)CC2)n1", "note": "[S18N9 D5]", "Absolute DNA transfection efficiency in HEK293 cells": 7.7}, {"compound": "CCCCCCCCCCCCCCCCCCSc1nc(NCCCCCCCCC)nc(NCCCN(C)C)n1", "note": "[S18N9 D6]", "Absolute DNA transfection efficiency in HEK293 cells": 19.5}, {"compound": "CCCCCCCCCCCCCCCCCCSc1nc(NCCCCCCCCC)nc(NCCN(CC)CC)n1", "note": "[S18N9 D7]", "Absolute DNA transfection efficiency in HEK293 cells": 6.7}, {"compound": "CCCCCCCCCCCCCCCCCCSc1nc(NCCCCCCCCC)nc(NCCCN2CCOCC2)n1", "note": "[S18N9 D8]", "Absolute DNA transfection efficiency in HEK293 cells": 3.0}, {"compound": "CCCCCCCCCCCCCCCCCCSc1nc(NCCCCCCCCC)nc(NCCCN2CCN(C)CC2)n1", "note": "[S18N9 D9]", "Absolute DNA transfection efficiency in HEK293 cells": 0.0}, {"compound": "CCCCCCCCCCCCCCCCCCSc1nc(NCCCCCCCCC)nc(NCC2CCN(C)CC2)n1", "note": "[S18N9 D10]", "Absolute DNA transfection efficiency in HEK293 cells": 4.5}, {"compound": "CCCCCCCCCCCCCCCCCCSc1nc(NCCCCCCCCCCC)nc(NCCN(C)C)n1", "note": "[S18N11 D1]", "Absolute DNA transfection efficiency in HEK293 cells": 3.7}, {"compound": "CCCCCCCCCCCCCCCCCCSc1nc(NCCCCCCCCCCC)nc(NCCN2CCOCC2)n1", "note": "[S18N11 D2]", "Absolute DNA transfection efficiency in HEK293 cells": 1.4}, {"compound": "CCCCCCCCCCCCCCCCCCSc1nc(NCCCCCCCCCCC)nc(NCCN2CCCC2)n1", "note": "[S18N11 D3]", "Absolute DNA transfection efficiency in HEK293 cells": 4.2}, {"compound": "CCCCCCCCCCCCCCCCCCSc1nc(NCCCCCCCCCCC)nc(NCCN2CCCCC2)n1", "note": "[S18N11 D4]", "Absolute DNA transfection efficiency in HEK293 cells": 10.1}, {"compound": "CCCCCCCCCCCCCCCCCCSc1nc(NCCCCCCCCCCC)nc(NCCN2CCN(C)CC2)n1", "note": "[S18N11 D5]", "Absolute DNA transfection efficiency in HEK293 cells": 6.3}, {"compound": "CCCCCCCCCCCCCCCCCCSc1nc(NCCCCCCCCCCC)nc(NCCCN(C)C)n1", "note": "[S18N11 D6]", "Absolute DNA transfection efficiency in HEK293 cells": 5.2}, {"compound": "CCCCCCCCCCCCCCCCCCSc1nc(NCCCCCCCCCCC)nc(NCCN(CC)CC)n1", "note": "[S18N11 D7]", "Absolute DNA transfection efficiency in HEK293 cells": 2.7}, {"compound": "CCCCCCCCCCCCCCCCCCSc1nc(NCCCCCCCCCCC)nc(NCCCN2CCOCC2)n1", "note": "[S18N11 D8]", "Absolute DNA transfection efficiency in HEK293 cells": 1.3}, {"compound": "CCCCCCCCCCCCCCCCCCSc1nc(NCCCCCCCCCCC)nc(NCCCN2CCN(C)CC2)n1", "note": "[S18N11 D9]", "Absolute DNA transfection efficiency in HEK293 cells": 2.9}, {"compound": "CCCCCCCCCCCCCCCCCCSc1nc(NCCCCCCCCCCC)nc(NCC2CCN(C)CC2)n1", "note": "[S18N11 D10]", "Absolute DNA transfection efficiency in HEK293 cells": 2.7}, {"compound": "CCCCCCCCCCCCCCCCCCSc1nc(NCCCCCCCCCCCC)nc(NCCN(C)C)n1", "note": "[S18N12 D1]", "Absolute DNA transfection efficiency in HEK293 cells": 1.3}, {"compound": "CCCCCCCCCCCCCCCCCCSc1nc(NCCCCCCCCCCCC)nc(NCCN2CCOCC2)n1", "note": "[S18N12 D2]", "Absolute DNA transfection efficiency in HEK293 cells": 0.7}, {"compound": "CCCCCCCCCCCCCCCCCCSc1nc(NCCCCCCCCCCCC)nc(NCCN2CCCC2)n1", "note": "[S18N12 D3]", "Absolute DNA transfection efficiency in HEK293 cells": 1.8}]}]}
